Holding throughout (assay type): biochemical
The target in one assay is T1, BTK-WT (Homo sapiens, UniProt Q06187).
T1 construct: purified from insect cells as a full-length construct containing an N-terminal 6X-His tag; His6 (N); made in house; host or cells: insect cells (baculovirus Sf21 in Method B)
The assay can be described thus: Btk in vitro inhibitory activity (one of Method A TR-FRET, Method B electrophoretic mobility shift, Method C radiometric filter binding). The note with it: D-compounds panel data; read-out: IC50 BTK-WT. A general note: A gel shift assay detects complexes by their altered migration in electrophoresis.

The target in another assay is EGFR (Homo sapiens, UniProt P00533). Put plainly: Inhibition of a panel of kinases, in vitro HotSpot kinase assay: EGFR. The note with it: D-compounds panel data; 1 μM ATP. On the procedure:
(§1) The degree of inhibition of a panel of kinases is determined using the in vitro HotSpot kinase assay (purified enzymes, ^33P-ATP, an appropriate substrate and 1 μM ATP).

A further assay deals with T2, JAK3 (Homo sapiens, UniProt P52333).
T2 sequence (P52333 1-1124): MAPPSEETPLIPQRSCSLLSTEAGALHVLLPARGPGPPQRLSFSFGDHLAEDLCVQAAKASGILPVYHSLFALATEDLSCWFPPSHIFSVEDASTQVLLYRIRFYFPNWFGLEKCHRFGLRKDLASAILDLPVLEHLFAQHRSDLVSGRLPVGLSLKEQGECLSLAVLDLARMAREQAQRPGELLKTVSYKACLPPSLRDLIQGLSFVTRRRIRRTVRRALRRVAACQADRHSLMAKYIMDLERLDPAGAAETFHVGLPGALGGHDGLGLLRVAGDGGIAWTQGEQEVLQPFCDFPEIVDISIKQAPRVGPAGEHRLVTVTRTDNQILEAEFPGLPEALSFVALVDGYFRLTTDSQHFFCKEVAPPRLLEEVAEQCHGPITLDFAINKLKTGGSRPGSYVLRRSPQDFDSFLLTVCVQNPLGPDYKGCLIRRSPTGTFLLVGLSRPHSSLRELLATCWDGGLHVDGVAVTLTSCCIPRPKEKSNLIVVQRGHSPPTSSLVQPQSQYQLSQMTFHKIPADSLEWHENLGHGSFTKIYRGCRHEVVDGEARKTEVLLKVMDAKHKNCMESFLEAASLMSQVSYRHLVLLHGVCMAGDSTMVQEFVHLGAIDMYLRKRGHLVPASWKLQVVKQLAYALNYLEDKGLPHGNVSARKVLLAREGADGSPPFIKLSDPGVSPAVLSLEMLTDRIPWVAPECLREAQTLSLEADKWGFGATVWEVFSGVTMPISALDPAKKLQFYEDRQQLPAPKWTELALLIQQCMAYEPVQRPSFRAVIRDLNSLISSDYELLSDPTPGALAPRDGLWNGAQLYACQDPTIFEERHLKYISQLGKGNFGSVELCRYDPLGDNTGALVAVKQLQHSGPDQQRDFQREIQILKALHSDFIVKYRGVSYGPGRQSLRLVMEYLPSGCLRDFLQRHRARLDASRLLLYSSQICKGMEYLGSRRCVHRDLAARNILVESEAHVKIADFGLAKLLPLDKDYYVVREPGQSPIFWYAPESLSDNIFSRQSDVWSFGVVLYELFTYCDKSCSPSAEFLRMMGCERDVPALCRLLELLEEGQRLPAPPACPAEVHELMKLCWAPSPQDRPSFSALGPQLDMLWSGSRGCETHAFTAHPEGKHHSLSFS
Put plainly: Inhibition of a panel of kinases, in vitro HotSpot kinase assay: JAK3. The note with it: D-compounds panel data; 1 μM ATP; read-out: IC50 JAK3.

The target in another assay is SRC (Homo sapiens, UniProt P12931). Put plainly: Inhibition of a panel of kinases, in vitro HotSpot kinase assay: SRC. The following applies: D-compounds panel data; 1 μM ATP. The procedure: as §1
Sequence of SRC (P12931 whole entry): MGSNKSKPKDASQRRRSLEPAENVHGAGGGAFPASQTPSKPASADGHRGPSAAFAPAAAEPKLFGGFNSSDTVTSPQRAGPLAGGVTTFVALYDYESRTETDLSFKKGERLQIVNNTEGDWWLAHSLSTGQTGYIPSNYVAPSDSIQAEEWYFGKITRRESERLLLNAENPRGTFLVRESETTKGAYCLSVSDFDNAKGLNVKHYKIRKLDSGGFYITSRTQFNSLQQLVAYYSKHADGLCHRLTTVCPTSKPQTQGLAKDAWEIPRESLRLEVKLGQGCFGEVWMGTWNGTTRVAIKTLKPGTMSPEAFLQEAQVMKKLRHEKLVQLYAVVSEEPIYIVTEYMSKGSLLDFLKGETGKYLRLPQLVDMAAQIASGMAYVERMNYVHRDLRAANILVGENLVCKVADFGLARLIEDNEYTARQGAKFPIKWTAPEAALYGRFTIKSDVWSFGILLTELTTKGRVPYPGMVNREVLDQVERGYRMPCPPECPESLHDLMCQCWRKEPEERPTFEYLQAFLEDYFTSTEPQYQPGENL

Where only a bound is given, the exact number is not on record here.

Sequence of EGFR (P00533 25-1210): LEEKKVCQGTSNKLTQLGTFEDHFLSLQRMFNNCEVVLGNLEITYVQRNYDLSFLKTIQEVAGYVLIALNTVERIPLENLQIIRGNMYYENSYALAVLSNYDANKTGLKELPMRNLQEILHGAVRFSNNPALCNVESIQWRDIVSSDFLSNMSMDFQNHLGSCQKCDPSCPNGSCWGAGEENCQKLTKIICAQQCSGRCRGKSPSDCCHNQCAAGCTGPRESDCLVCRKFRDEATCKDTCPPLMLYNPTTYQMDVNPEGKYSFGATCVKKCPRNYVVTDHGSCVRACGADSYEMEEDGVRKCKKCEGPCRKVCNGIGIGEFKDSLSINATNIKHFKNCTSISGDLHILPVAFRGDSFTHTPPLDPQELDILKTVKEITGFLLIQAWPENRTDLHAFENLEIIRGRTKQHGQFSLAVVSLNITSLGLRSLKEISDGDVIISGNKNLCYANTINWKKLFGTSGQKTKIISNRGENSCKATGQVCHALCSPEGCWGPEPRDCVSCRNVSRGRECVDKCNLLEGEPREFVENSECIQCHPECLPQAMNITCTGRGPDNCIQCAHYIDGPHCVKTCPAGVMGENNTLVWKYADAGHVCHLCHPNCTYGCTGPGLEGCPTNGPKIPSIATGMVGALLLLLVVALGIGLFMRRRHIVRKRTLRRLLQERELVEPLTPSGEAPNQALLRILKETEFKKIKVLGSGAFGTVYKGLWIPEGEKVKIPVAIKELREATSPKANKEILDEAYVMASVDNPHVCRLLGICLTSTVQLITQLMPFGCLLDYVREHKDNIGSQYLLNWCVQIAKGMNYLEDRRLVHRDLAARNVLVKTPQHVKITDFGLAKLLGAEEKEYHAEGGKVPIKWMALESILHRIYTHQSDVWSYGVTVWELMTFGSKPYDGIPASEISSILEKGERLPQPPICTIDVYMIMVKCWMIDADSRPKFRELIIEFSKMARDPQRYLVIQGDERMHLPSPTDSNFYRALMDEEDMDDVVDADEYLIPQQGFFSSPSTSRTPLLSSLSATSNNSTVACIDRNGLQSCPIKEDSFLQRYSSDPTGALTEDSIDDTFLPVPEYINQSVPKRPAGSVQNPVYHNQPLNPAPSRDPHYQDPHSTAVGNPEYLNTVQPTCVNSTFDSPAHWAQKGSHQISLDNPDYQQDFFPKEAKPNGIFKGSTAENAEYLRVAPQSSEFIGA
T1 sequence (Q06187 whole entry): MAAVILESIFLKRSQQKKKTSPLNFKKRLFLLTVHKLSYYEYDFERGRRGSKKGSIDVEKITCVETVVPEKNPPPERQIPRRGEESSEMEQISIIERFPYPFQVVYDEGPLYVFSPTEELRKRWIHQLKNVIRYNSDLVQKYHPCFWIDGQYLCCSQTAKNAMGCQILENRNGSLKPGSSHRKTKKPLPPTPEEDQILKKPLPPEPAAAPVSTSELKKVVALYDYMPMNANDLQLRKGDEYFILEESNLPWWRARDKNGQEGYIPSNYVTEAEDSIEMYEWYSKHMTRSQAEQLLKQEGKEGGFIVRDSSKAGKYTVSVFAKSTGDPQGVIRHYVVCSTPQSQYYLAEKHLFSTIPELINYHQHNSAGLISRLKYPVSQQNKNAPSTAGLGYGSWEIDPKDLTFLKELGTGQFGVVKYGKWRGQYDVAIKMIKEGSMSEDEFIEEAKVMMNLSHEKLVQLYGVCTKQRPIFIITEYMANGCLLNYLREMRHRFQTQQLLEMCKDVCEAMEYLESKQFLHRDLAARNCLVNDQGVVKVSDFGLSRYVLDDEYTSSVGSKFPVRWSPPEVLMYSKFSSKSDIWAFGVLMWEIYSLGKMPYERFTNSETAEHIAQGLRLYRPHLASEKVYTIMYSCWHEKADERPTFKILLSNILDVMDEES

Regarding `C[C@@H]1[C@H](NC(=O)c2ccc3c(cnn3C)c2)CCCN1c1cnc(C(N)=O)c(Nc2ccc(N3CCN(C)CC3)cc2)n1` [Example D-234, N-[(2R,3R)-1-(5-carbamoyl-6-{[4-(4-methylpiperazin-1-yl)phenyl]amino}pyrazin-2-yl)-2-methylpiperidin-3-yl]-1-methyl-1H-indazole-5-carboxamide], the IC50 (usually the point on the concentration scale where inhibition reaches its midpoint) at BTK-WT is ≤ 10 nM; on EGFR it was 100 to 1000 nM; on JAK3 it was 100 to 1000 nM; against SRC it was 10 to 100 nM.
Consider `C[C@@H]1[C@H](NC(=O)c2ccc(OC3CC3)cc2)CCCN1c1cnc(C(N)=O)c(Nc2cnn(C)c2)n1` [Example D-219, 5-[(2R,3R)-3-(4-cyclopropoxybenzamido)-2-methylpiperidin-1-yl]-3-[(1-methyl-1H-pyrazol-4-yl)amino]pyrazine-2-carboxamide], for which the IC50 was ≤ 10 nM at BTK-WT, 1000 to 10000 nM against EGFR, 1000 to 10000 nM at JAK3 and 10 to 100 nM on SRC.
Consider `Cc1nc2cc(C(=O)N[C@@H]3CCCN(c4cnc(C(N)=O)c(Nc5cnn(C)c5)n4)[C@@H]3C)ccc2s1` [Example D-242, N-[(2R,3R)-1-{5-carbamoyl-6-[(1-methyl-1H-pyrazol-4-yl)amino]pyrazin-2-yl}-2-methylpiperidin-3-yl]-2-methyl-1,3-benzothiazole-5-carboxamide], for which the IC50 on BTK-WT was ≤ 10 nM; against EGFR it was 1000 to 10000 nM; on JAK3 it was 100 to 1000 nM; on SRC, 10 to 100 nM.
In the case of `CN1CCN(c2ccc(Nc3nc(N4CCC[C@@H](n5ccc6cc(C7CC7)ccc6c5=O)C4)cnc3C(N)=O)nc2)CC1` [Example D-179, 5-[(3R)-3-(6-cyclopropyl-1-oxo-1,2-dihydroisoquinolin-2-yl)piperidin-1-yl]-3-{[5-(4-methylpiperazin-1-yl)pyridin-2-yl]amino}pyrazine-2-carboxamide], the IC50 on BTK-WT was 100 to 1000 nM; against EGFR, > 10000 nM; on JAK3 it was > 10000 nM; at SRC, > 10000 nM.
As for `C[C@@H]1[C@H](NC(=O)c2ccc(C3CC3)cc2F)CCCN1c1cnc(C(N)=O)c(Nc2cc(CN3CCOCC3)ns2)n1` [Example D-173, 5-[(2R,3R)-3-(4-cyclopropyl-2-fluorobenzamido)-2-methylpiperidin-1-yl]-3-{[3-(morpholin-4-ylmethyl)-1,2-thiazol-5-yl]amino}pyrazine-2-carboxamide], the half-inhibitory concentration (IC50) at BTK-WT is ≤ 10 nM; at EGFR, 100 to 1000 nM; at JAK3, 100 to 1000 nM; at SRC it was 10 to 100 nM.
For `C[C@@H]1[C@H](NC(=O)c2ccc(N(C)C)cc2)CCCN1c1cnc(C(N)=O)c(Nc2ccc(N3CCN(C)CC3)cc2)n1` [Example D-196, 5-[(2R,3R)-3-[4-(dimethylamino)benzamido]-2-methylpiperidin-1-yl]-3-{[4-(4-methylpiperazin-1-yl)phenyl]amino}pyrazine-2-carboxamide], the IC50 on BTK-WT is ≤ 10 nM; against EGFR, 100 to 1000 nM; on JAK3, 100 to 1000 nM; at SRC, 10 to 100 nM.
In the case of `C[C@@H]1[C@H](NC(=O)c2ccc(C3CC3)cc2F)CCCN1c1cnc(C(N)=O)c(Nc2cc(CN3CCCCC3)ns2)n1` [Example D-176, 5-[(2R,3R)-3-(4-cyclopropyl-2-fluorobenzamido)-2-methylpiperidin-1-yl]-3-{[3-(piperidin-1-ylmethyl)-1,2-thiazol-5-yl]amino}pyrazine-2-carboxamide], the IC50 on BTK-WT was ≤ 10 nM; on EGFR, > 10000 nM; at JAK3, 100 to 1000 nM; against SRC, 10 to 100 nM.
The corresponding values for `C[C@@H]1[C@H](NC(=O)c2ccc(S(F)(F)(F)(F)F)cc2)CCCN1c1cnc(C(N)=O)c(Nc2cnn(C)c2)n1` [Example D-230, 3-[(1-methyl-1H-pyrazol-4-yl)amino]-5-[(2R,3R)-2-methyl-3-[4-(pentafluoro-λ^6-sulfanyl)benzamido]piperidin-1-yl]pyrazine-2-carboxamide] are ≤ 10 nM, 1000 to 10000 nM, > 10000 nM and 100 to 1000 nM.

The values are drawn from patent publication US20210070748A1, “INHIBITORS OF BRUTONS TYROSINE KINASE” (Pharmacyclics LLC, priority 2015, published 2021).
